Assay results from patent US20110028455A1, “Indole-substituted 3-cyanopyridines As Kinase Inhibitors” (Wyeth LLC, priority 2007, published 2011).

How the values were obtained:
[1] = molecular target: T1, human PKCθ full length enzyme (Homo sapiens, UniProt Q04759); test: PKCθ IMAP Assay; format: biochemical; conditions: PKCθ 1 nM; ATP 6 μM; peptide 100 nM; DMSO 5%; 25 minutes at room temperature; FP readout; read-out: PKC-Theta Mean IC50
T1 construct: human PKCθ full length enzyme (Panvera Cat# P2996); purchased Panvera P2996
T1 sequence (Q04759 whole entry): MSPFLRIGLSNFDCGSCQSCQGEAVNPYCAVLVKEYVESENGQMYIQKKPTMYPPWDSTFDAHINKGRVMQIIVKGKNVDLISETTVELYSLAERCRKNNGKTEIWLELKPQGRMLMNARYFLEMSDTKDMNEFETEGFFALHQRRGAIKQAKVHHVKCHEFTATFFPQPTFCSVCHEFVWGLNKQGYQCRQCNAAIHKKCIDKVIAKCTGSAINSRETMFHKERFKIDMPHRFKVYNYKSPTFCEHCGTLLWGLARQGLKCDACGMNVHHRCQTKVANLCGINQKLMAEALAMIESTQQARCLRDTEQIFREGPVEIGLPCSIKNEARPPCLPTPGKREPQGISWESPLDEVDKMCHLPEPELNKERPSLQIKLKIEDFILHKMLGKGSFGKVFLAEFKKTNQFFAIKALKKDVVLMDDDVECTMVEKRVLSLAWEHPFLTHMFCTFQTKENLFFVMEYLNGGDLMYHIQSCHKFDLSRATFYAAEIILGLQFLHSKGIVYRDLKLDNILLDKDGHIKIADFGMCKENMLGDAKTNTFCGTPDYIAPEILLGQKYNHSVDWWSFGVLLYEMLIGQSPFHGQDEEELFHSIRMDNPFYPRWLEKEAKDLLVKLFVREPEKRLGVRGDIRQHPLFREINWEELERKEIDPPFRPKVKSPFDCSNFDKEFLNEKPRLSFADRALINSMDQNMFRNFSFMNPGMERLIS
Method: The materials used include the following: human PKCθ full length enzyme (Panvera Cat# P2996); substrate peptide: 5FAM-RFARKGSLRQKNV-OH (Molecular Devices, RP7032); ATP (Sigma Cat # A2383); DTT (Pierce, 20291); 5× kinase reaction buffer (Molecular Devices, R7209); 5× binding buffer A (Molecular Devices, R7282), 5× binding buffer B (Molecular Devices, R7209); IMAP Beads (Molecular Devices, R7284); and 384-well plates (Corning Costar, 3710).
The reaction buffer was prepared by diluting the 5× stock reaction buffer and adding DTT to obtain a concentration of 3.0 mM. The binding buffer was prepared by diluting the 5× binding buffer A. A master mix solution was prepared using a 90% dilution of the reaction buffer containing 2×ATP (12 uM) and 2× peptide (200 nm). Compounds were diluted in DMSO to 20× of the maximum concentration for the IC50 measurement. 27 μl of the master mix solution for each IC50 curve was added to the first column in a 384-well plate and 3 μl of 20× compound in DMSO was added to each well.
The final concentration of compound was 2× and 10% DMSO. DMSO was added to the rest of the master mix to increase the concentration to 10%. 10 μl of the master mix containing 10% DMSO was added to the rest of the wells on the plate except the 2nd column. 20 μl was transferred from the first column to the 2nd column. The compounds were serially diluted in 2:1 ratio starting from the 2nd column. A 2×(2 nM) PKCθ solution was made in the reaction buffer. 10 μl of the PKCθ solution was added to every well to achieve these final concentrations: PKCθ-1 nM; ATP-6 μM; peptide-100 nM; DMSO-5%. Samples were incubated for 25 minutes at room temperature. The binding reagent was prepared by diluting the beads in 1× binding buffer to 800:1. 50 μl of the binding reagent was added to every well and incubated for 20 minutes. FP was measured using Envision2100 (PerkinElmer Life Sciences). Wells with no ATP and wells with no enzyme were used as controls.

[2] = Metabolic stability in rat liver microsomes; format: in vitro ADME; conditions: 30 minutes incubation, remaining compound by HPLC, 6-Me compounds of the invention, read-out: Rat Microsome Stability of 6-Me cyanopyridine Compounds (approximate half life)
Method: In order to probe the metabolic stability of the compounds of the invention, a series of compounds were selected for stability testing in rat liver microsomes. A DMSO solution of each compound was incubated for 30 minutes in the presence of rat liver homogenate. The percentage of remaining compound was assessed by HPLC. An approximate half life was calculated from the percentage of remaining compound. Table II, below, illustrates a comparison of the in vitro microsomal half life of the selected compounds verses a series of related compounds lacking the C-6 alkyl group. […] It is generally accepted in the industry that improved in vitro metabolic stability frequently translates into improved in vivo metabolic stability. Improved metabolic stability may translate to increased in vivo exposure levels.

Row | Structure (SMILES) | melting point | IC50 [1] | half-life [2]
1 | Cc1ncc(C#N)c(Nc2ccc3[nH]ccc3c2C)c1-c1ccc(OCCCl)cc1 [Example 12, 5-[4-(2-chloroethoxy)phenyl]-6-methyl-4-[(4-methyl-1H-indol-5-yl)amino]nicotinonitrile] | 200 to 201 °C | 30 nM | 
2 | Cc1ncc(C#N)c(Nc2cccc3[nH]ccc23)c1-c1ccc(OCCCl)cc1 [Example 13, 5-[4-(2-chloroethoxy)phenyl]-4-(1H-indol-4-ylamino)-6-methylnicotinonitrile] | 185 to 186 °C | 150 nM | 
3 | Cc1ncc(C#N)c(Nc2ccc3[nH]ccc3c2C)c1-c1ccc(OCCN2CCN(C)CC2)cc1 [Example 14, 6-methyl-4-[(4-methyl-1H-indol-5-yl)amino]-5-{4-[2-(4-methylpiperazin-1-yl)ethoxy]phenyl}nicotinonitrile] | 183 to 184 °C | 31 nM | > 30 min

The next compounds have a lower IC50 [1] than those just listed; values first:

Row | melting point | IC50 [1] | half-life [2] | Structure (SMILES)
4 | 168 to 169 °C | 12 nM |  | Cc1ncc(C#N)c(Nc2ccc3[nH]ccc3c2C)c1-c1cc2cc(C=O)ccc2o1 [Example 15, 5-(5-formyl-1-benzofuran-2-yl)-6-methyl-4-[(4-methyl-1H-indol-5-yl)amino]nicotinonitrile]
5 | 218 to 220 °C | 2.7 nM |  | Cc1ncc(C#N)c(Nc2ccc3[nH]ccc3c2C)c1-c1cc2cc(CN3CCN(C)CC3)ccc2o1 [Example 16, 6-methyl-4-[(4-methyl-1H-indol-5-yl)amino]-5-{5-[(4-methylpiperazin-1-yl)methyl]-1-benzofuran-2-yl}nicotinonitrile]
